From the NIST ThermoML archive (doi:10.1016/j.jct.2009.05.004)
Numbers after ± are expanded uncertainties.

Test: mn = molality of the nth substance listed, in mol/kg
Conditions: Liquid, Vibrating tube method

[Br-].[Br-].[Zn+2] [zinc bromide] + CCO
mass density (373.14 K, 19874 kPa, m1 = 0.9305): 872.91 ± 0.64 kg/m3
mass density (373.14 K, 24846 kPa, m1 = 1.887): 1005.15 ± 0.62 kg/m3
mass density (373.14 K, 24985 kPa, m1 = 0.05681): 753.48 ± 0.7 kg/m3
mass density (373.14 K, 25624 kPa, m1 = 0.3043): 790.48 ± 0.68 kg/m3
mass density (373.14 K, 34851 kPa, m1 = 0.3043): 799.55 ± 0.71 kg/m3
mass density (373.14 K, 39921 kPa, m1 = 0.05681): 767.81 ± 0.76 kg/m3
mass density (373.15 K, 1032 kPa, m1 = 0.05681): 723.97 ± 0.64 kg/m3
mass density (373.15 K, 1228 kPa, m1 = 0.3043): 761.13 ± 0.63 kg/m3
mass density (373.15 K, 1745 kPa, m1 = 1.49): 926.45 ± 0.62 kg/m3
mass density (373.15 K, 4944 kPa, m1 = 0.4384): 785.45 ± 0.63 kg/m3
mass density (373.15 K, 5301 kPa, m1 = 1.49): 931.02 ± 0.62 kg/m3
mass density (373.15 K, 9796 kPa, m1 = 0.1696): 752.88 ± 0.65 kg/m3
mass density (373.15 K, 10025 kPa, m1 = 0.3043): 772.61 ± 0.65 kg/m3
mass density (373.15 K, 10059 kPa, m1 = 1.49): 936.9 ± 0.62 kg/m3
mass density (373.15 K, 14641 kPa, m1 = 0.1696): 758.82 ± 0.66 kg/m3
mass density (373.15 K, 14690 kPa, m1 = 0.9305): 867.04 ± 0.63 kg/m3
mass density (373.15 K, 14903 kPa, m1 = 0.4384): 797.84 ± 0.65 kg/m3
mass density (373.15 K, 15214 kPa, m1 = 1.49): 942.98 ± 0.62 kg/m3
mass density (373.15 K, 15627 kPa, m1 = 0.05681): 742.91 ± 0.67 kg/m3
mass density (373.15 K, 19954 kPa, m1 = 1.49): 948.31 ± 0.62 kg/m3
mass density (373.15 K, 20147 kPa, m1 = 0.3043): 784.56 ± 0.67 kg/m3
mass density (373.15 K, 24995 kPa, m1 = 0.9305): 878.38 ± 0.64 kg/m3
mass density (373.15 K, 25487 kPa, m1 = 1.49): 954.2 ± 0.62 kg/m3
mass density (373.15 K, 29987 kPa, m1 = 1.49): 958.73 ± 0.62 kg/m3
mass density (373.15 K, 30014 kPa, m1 = 0.05681): 758.65 ± 0.72 kg/m3
mass density (373.15 K, 34798 kPa, m1 = 0.4384): 818.78 ± 0.69 kg/m3
mass density (373.15 K, 35026 kPa, m1 = 1.49): 963.54 ± 0.62 kg/m3
mass density (373.15 K, 35841 kPa, m1 = 0.05681): 764.21 ± 0.74 kg/m3
mass density (373.15 K, 39669 kPa, m1 = 0.1696): 784.45 ± 0.74 kg/m3
mass density (373.15 K, 39689 kPa, m1 = 0.4384): 823.15 ± 0.7 kg/m3
mass density (373.15 K, 39845 kPa, m1 = 0.3043): 804 ± 0.72 kg/m3
mass density (373.15 K, 39954 kPa, m1 = 1.49): 967.95 ± 0.62 kg/m3
mass density (373.16 K, 5415 kPa, m1 = 0.3043): 766.72 ± 0.64 kg/m3
mass density (373.16 K, 10024 kPa, m1 = 0.05681): 735.99 ± 0.66 kg/m3
mass density (373.16 K, 15428 kPa, m1 = 0.3043): 779.16 ± 0.66 kg/m3
mass density (373.16 K, 29954 kPa, m1 = 0.3043): 794.87 ± 0.7 kg/m3
mass density (373.16 K, 34801 kPa, m1 = 0.1696): 780.13 ± 0.72 kg/m3
mass density (373.16 K, 34880 kPa, m1 = 1.887): 1014.97 ± 0.62 kg/m3
mass density (373.16 K, 34946 kPa, m1 = 0.9305): 888.07 ± 0.65 kg/m3
mass density (373.17 K, 1840 kPa, m1 = 0.9305): 851.03 ± 0.62 kg/m3
mass density (373.17 K, 5196 kPa, m1 = 0.9305): 855.41 ± 0.63 kg/m3
mass density (373.17 K, 9909 kPa, m1 = 0.9305): 861.33 ± 0.63 kg/m3
mass density (373.17 K, 19733 kPa, m1 = 0.1696): 764.71 ± 0.68 kg/m3
mass density (373.17 K, 19793 kPa, m1 = 0.4384): 803.46 ± 0.66 kg/m3
mass density (373.17 K, 20061 kPa, m1 = 0.05681): 748.07 ± 0.69 kg/m3
mass density (373.17 K, 29790 kPa, m1 = 0.9305): 883.2 ± 0.65 kg/m3
mass density (373.17 K, 39725 kPa, m1 = 1.887): 1019.24 ± 0.62 kg/m3
mass density (373.17 K, 39848 kPa, m1 = 0.9305): 892.38 ± 0.65 kg/m3
mass density (393.11 K, 5006 kPa, m1 = 0.1696): 724.69 ± 0.64 kg/m3
mass density (393.12 K, 5021 kPa, m1 = 1.887): 958.47 ± 0.62 kg/m3
mass density (393.12 K, 5106 kPa, m1 = 0.9305): 833.37 ± 0.63 kg/m3
mass density (393.12 K, 20028 kPa, m1 = 0.1696): 745.51 ± 0.69 kg/m3
mass density (393.12 K, 20063 kPa, m1 = 0.4384): 784.5 ± 0.67 kg/m3
mass density (393.12 K, 25074 kPa, m1 = 0.4384): 790.6 ± 0.68 kg/m3
mass density (393.12 K, 34785 kPa, m1 = 1.887): 995.67 ± 0.62 kg/m3
mass density (393.12 K, 34930 kPa, m1 = 0.4384): 801.35 ± 0.71 kg/m3
mass density (393.12 K, 39767 kPa, m1 = 1.887): 1000.55 ± 0.61 kg/m3
mass density (393.13 K, 9820 kPa, m1 = 0.4384): 770.68 ± 0.65 kg/m3
mass density (393.13 K, 19900 kPa, m1 = 1.887): 978.73 ± 0.62 kg/m3
mass density (393.13 K, 30105 kPa, m1 = 0.9305): 865.29 ± 0.65 kg/m3
mass density (393.13 K, 39972 kPa, m1 = 0.4384): 806.21 ± 0.72 kg/m3
mass density (393.14 K, 1801 kPa, m1 = 0.9305): 828.39 ± 0.62 kg/m3
mass density (393.14 K, 5624 kPa, m1 = 0.3043): 745.3 ± 0.64 kg/m3
mass density (393.14 K, 9870 kPa, m1 = 0.9305): 840.24 ± 0.63 kg/m3
mass density (393.14 K, 14926 kPa, m1 = 0.4384): 777.8 ± 0.66 kg/m3
mass density (393.14 K, 15321 kPa, m1 = 0.05681): 722.2 ± 0.68 kg/m3
mass density (393.14 K, 19767 kPa, m1 = 0.9305): 853.32 ± 0.64 kg/m3
mass density (393.14 K, 24945 kPa, m1 = 0.3043): 771.16 ± 0.69 kg/m3
mass density (393.14 K, 29892 kPa, m1 = 0.1696): 757.28 ± 0.72 kg/m3
mass density (393.14 K, 29921 kPa, m1 = 0.05681): 740.47 ± 0.74 kg/m3
mass density (393.14 K, 29972 kPa, m1 = 0.4384): 796.15 ± 0.69 kg/m3
mass density (393.15 K, 1241 kPa, m1 = 0.05681): 701.02 ± 0.64 kg/m3
mass density (393.15 K, 1627 kPa, m1 = 0.3043): 739.2 ± 0.63 kg/m3
mass density (393.15 K, 1798 kPa, m1 = 1.887): 953.48 ± 0.62 kg/m3
mass density (393.15 K, 1921 kPa, m1 = 1.49): 903.69 ± 0.62 kg/m3
mass density (393.15 K, 5026 kPa, m1 = 1.49): 908.13 ± 0.62 kg/m3
mass density (393.15 K, 10025 kPa, m1 = 0.3043): 751.72 ± 0.65 kg/m3
mass density (393.15 K, 10167 kPa, m1 = 0.1696): 732.24 ± 0.66 kg/m3
mass density (393.15 K, 10215 kPa, m1 = 0.05681): 714.93 ± 0.66 kg/m3
mass density (393.15 K, 10412 kPa, m1 = 1.49): 915.55 ± 0.62 kg/m3
mass density (393.15 K, 15026 kPa, m1 = 1.49): 921.63 ± 0.62 kg/m3
mass density (393.15 K, 19932 kPa, m1 = 0.05681): 728.38 ± 0.7 kg/m3
mass density (393.15 K, 20215 kPa, m1 = 1.49): 928.15 ± 0.62 kg/m3
mass density (393.15 K, 24815 kPa, m1 = 0.9305): 859.38 ± 0.65 kg/m3
mass density (393.15 K, 24872 kPa, m1 = 1.887): 984.66 ± 0.62 kg/m3
mass density (393.15 K, 25654 kPa, m1 = 1.49): 934.64 ± 0.63 kg/m3
mass density (393.15 K, 29841 kPa, m1 = 0.3043): 776.76 ± 0.71 kg/m3
mass density (393.15 K, 29885 kPa, m1 = 1.887): 990.35 ± 0.62 kg/m3
mass density (393.15 K, 29954 kPa, m1 = 1.49): 939.52 ± 0.63 kg/m3
mass density (393.15 K, 35014 kPa, m1 = 1.49): 944.97 ± 0.63 kg/m3
mass density (393.15 K, 39824 kPa, m1 = 0.05681): 750.71 ± 0.78 kg/m3
mass density (393.15 K, 39865 kPa, m1 = 0.3043): 787.01 ± 0.74 kg/m3
mass density (393.15 K, 39921 kPa, m1 = 1.49): 949.96 ± 0.63 kg/m3
mass density (393.15 K, 39924 kPa, m1 = 0.1696): 767.7 ± 0.76 kg/m3
mass density (393.16 K, 1957 kPa, m1 = 0.1696): 720.03 ± 0.64 kg/m3
mass density (393.16 K, 5064 kPa, m1 = 0.05681): 707.12 ± 0.65 kg/m3
mass density (393.16 K, 14857 kPa, m1 = 0.1696): 738.74 ± 0.67 kg/m3
mass density (393.16 K, 15924 kPa, m1 = 0.3043): 759.83 ± 0.67 kg/m3
mass density (393.16 K, 24739 kPa, m1 = 0.1696): 751.32 ± 0.7 kg/m3
mass density (393.16 K, 25067 kPa, m1 = 0.05681): 734.81 ± 0.72 kg/m3
mass density (393.16 K, 34854 kPa, m1 = 0.3043): 782.09 ± 0.72 kg/m3
mass density (393.16 K, 34855 kPa, m1 = 0.1696): 762.63 ± 0.74 kg/m3
mass density (393.16 K, 34890 kPa, m1 = 0.9305): 870.24 ± 0.66 kg/m3
mass density (393.16 K, 35621 kPa, m1 = 0.05681): 746.57 ± 0.76 kg/m3
mass density (393.16 K, 39922 kPa, m1 = 0.9305): 875.04 ± 0.67 kg/m3
mass density (393.17 K, 4784 kPa, m1 = 0.4384): 763.23 ± 0.64 kg/m3
mass density (393.17 K, 14838 kPa, m1 = 0.9305): 847.01 ± 0.64 kg/m3
mass density (393.17 K, 14975 kPa, m1 = 1.887): 972.19 ± 0.62 kg/m3
mass density (393.17 K, 19958 kPa, m1 = 0.3043): 765.06 ± 0.68 kg/m3
mass density (393.18 K, 10012 kPa, m1 = 1.887): 965.38 ± 0.62 kg/m3
mass density (393.19 K, 1568 kPa, m1 = 0.4384): 758.24 ± 0.63 kg/m3
